In article PMC4995014, “Identification of ABC Transporter Interaction of a Novel Cyanoquinoline Radiotracer and Implications for Tumour Imaging by Positron Emission Tomography” (PLoS ONE, 2016):

Assays:
3T3-MDR1 cells = experiment: SRB cell viability assay in 3T3-MDR1 cells (ABCB1 expressing); type: cell-based; conditions: GI50 3T3-MDR1 over GI50 3T3, without zosuquidar
Description: (§1) Cell viability by the sulforhodamine B (SRB) assay was used to assess cell growth and cytotoxicity of test compounds [29]. Cells were seeded at densities of 3,500 to 5,000 cells per well in 96 well plates overnight and pre-treated for 1 h with ABC transporter modulators: 10 μM fumitremorgin C (FTC; in MCF7MX and MCF7 cells), or 0.3 μM of zosuquidar (in 3T3 and 3T3-MDR1). Cells were then treated with test compounds for 72 h, at 37°C. After drug treatment, cells were fixed by addition of 50% trichloroacetic acid (TCA), and the plates washed and dried to allow staining with 0.4% solution of sulforhodamine B (Sigma) in 1% acetic acid for 30 minutes. Excess dye was removed upon washing with 1% acetic acid. Plates were dried and bound protein was solubilised upon addition of 150 μL of 10 mM Tris base buffer. Absorbance was measured at 540 nm using Thermo Multiskan-Ex plate reader. Cell viability versus compound concentration curves were plotted as a percentage of control cells. The concentration of drug that gave 50% inhibition in cell growth (GI50) was extrapolated from these curves using the sigmoid curve fit with variable slope in Prism (GraphPad Prism version 5.01, GraphPad Software, San Diego California USA). Three to six replicate wells were used for each drug concentration and experiments were carried out on three separate occasions for each compound.

ABCB1 (MDR1) = experiment: as above; type: cell-based; conditions: mouse, 3T3-MDR1 cells (ABCB1 expressing), 72 h, SRB
Description: as §1

MCF7MX cells = experiment: SRB cell viability assay in MCF7MX cells (ABCG2 overexpressing); type: cell-based, human; conditions: for GI50: Homo sapiens, MCF7/MX, 72 h, SRB
Description: as §1

[1] = target: T1, EGFR Del E746-A750 (H1650 cells) (Homo sapiens, UniProt P00533, DEL746-750); experiment: Inhibition of EGFR autophosphorylation (p-EGFR Y1068, western blot) in H1650 cells; type: cell-based; conditions: 3 h incubation, EGF stimulated
T1 construct: endogenous in cells; host or cells: H1650 (ATCC)
T1 sequence (P00533 with tags, fused parts or gaps DEL746-750): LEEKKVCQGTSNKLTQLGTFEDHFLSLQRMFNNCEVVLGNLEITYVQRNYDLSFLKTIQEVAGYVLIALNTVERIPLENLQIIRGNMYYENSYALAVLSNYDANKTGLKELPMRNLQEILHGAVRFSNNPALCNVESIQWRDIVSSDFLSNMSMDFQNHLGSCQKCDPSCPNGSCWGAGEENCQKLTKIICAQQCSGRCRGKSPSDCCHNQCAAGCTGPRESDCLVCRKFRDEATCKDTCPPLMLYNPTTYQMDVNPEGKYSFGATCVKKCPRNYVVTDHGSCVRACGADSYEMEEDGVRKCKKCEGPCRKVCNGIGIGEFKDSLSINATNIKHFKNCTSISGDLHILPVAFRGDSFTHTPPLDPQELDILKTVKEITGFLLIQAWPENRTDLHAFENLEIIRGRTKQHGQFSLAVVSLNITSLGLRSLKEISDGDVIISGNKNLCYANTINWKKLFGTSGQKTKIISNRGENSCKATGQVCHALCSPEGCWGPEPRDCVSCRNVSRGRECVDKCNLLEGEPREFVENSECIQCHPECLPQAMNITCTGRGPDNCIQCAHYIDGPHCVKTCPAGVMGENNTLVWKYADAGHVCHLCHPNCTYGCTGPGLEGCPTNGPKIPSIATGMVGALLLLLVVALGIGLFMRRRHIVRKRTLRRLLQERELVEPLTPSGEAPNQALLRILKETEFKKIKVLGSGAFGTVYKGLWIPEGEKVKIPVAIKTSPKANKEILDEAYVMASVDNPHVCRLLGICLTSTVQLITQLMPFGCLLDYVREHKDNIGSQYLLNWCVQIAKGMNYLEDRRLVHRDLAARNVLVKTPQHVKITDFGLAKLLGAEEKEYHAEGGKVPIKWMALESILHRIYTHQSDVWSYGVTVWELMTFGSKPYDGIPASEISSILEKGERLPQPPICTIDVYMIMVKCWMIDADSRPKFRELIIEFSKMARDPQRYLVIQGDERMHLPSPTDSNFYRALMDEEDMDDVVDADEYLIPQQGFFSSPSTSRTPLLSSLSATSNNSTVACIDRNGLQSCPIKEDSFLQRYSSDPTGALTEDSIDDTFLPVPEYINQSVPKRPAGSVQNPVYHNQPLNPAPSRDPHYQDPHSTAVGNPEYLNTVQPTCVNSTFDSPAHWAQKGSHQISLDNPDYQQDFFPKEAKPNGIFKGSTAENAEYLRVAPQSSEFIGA
Description: (§2) Affinity of the cyanoquinolines for EGFR was established by measuring their inhibition of EGFR autophosphorylation via western blot. Cells were seeded in 6 well plates and following 24 h of growth, were subject to overnight serum starvation. The cells were then treated with increasing concentrations of cyanoquinolines prepared in serum free growth media from a DMSO stock (final DMSO concentration < 1%) for 3 h at 37°C, and stimulated for receptor autophosphorylation by addition of 100 ng/mL of EGF during the last 15 minutes of drug incubation. After 3 h the cells were placed on ice, media removed and then the cells were washed two times with ice cold phosphate buffered saline (PBS). Lysates were analysed by western blot to measure changes to p-EGFR Y1068.
(§3) Cell lysates were prepared by addition of radioimmunoprecipitation assay (RIPA) buffer (50mM Tris-HCl pH 7.2, 150mM NaCl, 1% NP40, 1% sodium deoxycholate, 0.1% sodium dodecyl sulfate) supplemented with 1 x protease and phosphatase inhibitor cocktail (1mM 4-(2-Aminoethyl)benzenesulfonylfluoride hydrochloride, 800 nM aprotinin, 50 μM bestatin, 15 μM E-64, 5μM EDTA, 20 μM leupeptin, 10 μM pepstatin A; Thermo scientific, Waltham, Massachusetts, USA). […] Cellular protein levels were assessed using a bicinchoninic acid (BCA) protein assay kit according to the manufacturer’s instructions (Thermo scientific). […]

[2] = target: T2, wildtype EGFR (A549 cells) (Homo sapiens, UniProt P00533); experiment: Inhibition of EGFR autophosphorylation (p-EGFR Y1068, western blot) in A549 cells; type: cell-based; conditions: 3 h incubation, EGF stimulated
T2 construct: host or cells: A549
T2 sequence (P00533 25-1210): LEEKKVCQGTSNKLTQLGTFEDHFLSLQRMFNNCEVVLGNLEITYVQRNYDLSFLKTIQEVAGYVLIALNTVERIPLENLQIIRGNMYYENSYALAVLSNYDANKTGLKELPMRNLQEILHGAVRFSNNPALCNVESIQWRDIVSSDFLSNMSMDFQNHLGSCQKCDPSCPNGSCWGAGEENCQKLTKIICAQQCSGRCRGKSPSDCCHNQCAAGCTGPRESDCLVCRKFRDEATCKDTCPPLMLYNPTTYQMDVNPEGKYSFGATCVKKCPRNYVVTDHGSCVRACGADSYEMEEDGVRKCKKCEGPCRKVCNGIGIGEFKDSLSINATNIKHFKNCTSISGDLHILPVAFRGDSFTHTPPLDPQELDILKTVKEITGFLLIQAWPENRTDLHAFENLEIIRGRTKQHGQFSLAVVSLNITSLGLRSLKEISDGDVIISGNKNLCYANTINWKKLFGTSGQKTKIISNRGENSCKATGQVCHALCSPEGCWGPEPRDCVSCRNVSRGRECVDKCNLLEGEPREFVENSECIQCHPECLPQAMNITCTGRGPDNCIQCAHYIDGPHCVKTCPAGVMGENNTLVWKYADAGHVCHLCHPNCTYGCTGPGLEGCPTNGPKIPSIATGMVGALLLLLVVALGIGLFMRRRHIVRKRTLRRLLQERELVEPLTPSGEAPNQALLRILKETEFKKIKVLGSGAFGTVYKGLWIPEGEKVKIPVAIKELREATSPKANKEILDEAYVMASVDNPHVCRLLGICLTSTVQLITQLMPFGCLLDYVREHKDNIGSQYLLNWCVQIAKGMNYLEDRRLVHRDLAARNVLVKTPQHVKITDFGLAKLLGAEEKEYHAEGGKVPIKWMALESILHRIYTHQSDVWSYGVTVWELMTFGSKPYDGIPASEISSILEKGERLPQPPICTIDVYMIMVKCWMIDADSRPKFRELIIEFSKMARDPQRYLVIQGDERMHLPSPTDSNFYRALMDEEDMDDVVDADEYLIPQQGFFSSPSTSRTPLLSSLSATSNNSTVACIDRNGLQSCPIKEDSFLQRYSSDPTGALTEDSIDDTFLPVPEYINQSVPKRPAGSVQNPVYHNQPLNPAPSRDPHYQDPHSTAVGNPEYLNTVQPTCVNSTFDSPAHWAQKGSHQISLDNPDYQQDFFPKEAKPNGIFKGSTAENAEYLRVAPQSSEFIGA
Description: as §2, §3

EGFR = tested on: EGFR; design: method as in PMID 20797871, PMID 24307532; conditions: cell-free; read-out: IC50 for inhibition of cell-free EGFR phosphorylation; cited from earlier work
[3] = target: T3, wildtype EGFR (H358 cells) (Homo sapiens, UniProt P00533); experiment: Inhibition of EGFR autophosphorylation (p-EGFR Y1068, western blot) in H358 cells; type: cell-based; conditions: 3 h incubation, EGF stimulated
T3 construct: host or cells: H358
T3 sequence (P00533 25-1210): as above
Description: as §2, §3

3T3 cells = experiment: SRB cell viability assay in 3T3 cells; type: cell-based; conditions: Mus musculus, NIH3T3, 72 h
Description: as §1

CCOc1cc2ncc(C#N)c(Nc3ccc(F)c(Cl)c3)c2cc1NC(=O)/C=C/CNCc1cn(CCF)nn1 [FED6, (2E)-N-{4-[(3-chloro-4-fluorophenyl)amino]-3-cyano-7-ethoxyquinolin-6-yl}-4-({[1-(2-fluoroethyl)-1H-1,2,3-triazol-4-yl]methyl}amino)-but-2-enamide]
fold increase in GI50 in the ABCB1 overexpressing cell line (3T3-MDR1 cells): > 10 fold
GI50 at 72 h (ABCB1 (MDR1); with zosuquidar 0.3 μM (1 h pre-treatment), pre-treatment with 0.3 μM zosuquidar): 13.6 ± 0.6 µM
GI50 at 72 h (ABCB1 (MDR1); without zosuquidar): > 100 µM
fold increase in GI50 in the ABCG2 overexpressing cell line (MCF7MX cells; GI50 MCF7MX over GI50 MCF7, without FTC): 6.3 fold
GI50 (MCF7MX cells; 1 h pre-treatment with 10 μM FTC): 37.9 ± 21.9 µM
GI50 (MCF7MX cells; without FTC): 75.9 ± 43.8 µM
IC50 [1]: 0.04 µM
IC50 [2]: 0.7 µM
IC50 (EGFR): 0.0018 µM
IC50 [3]: 0.6 µM
GI50 (3T3 cells; pre-treatment with 0.3 μM zosuquidar): 7.8 ± 0.7 µM
GI50 (3T3 cells; without zosuquidar): 10.7 ± 1 µM
